In patent US5436229A, “Bisulfite adducts of arginine aldehydes” (Eli Lilly and Company, priority 1994, dated 1995):
Non-standard residues stand in square brackets, D forms with d. Residues, ends and D or L forms follow the SMILES beside them. dNMeCha = CN[C@H](CC1CCCCC1)C(=O)O

Legend:
[1] = Epimerization inhibition by sodium bisulfite (compound of Example 80, Step F); assay type: physicochemical; details: pH 7.4, 50° C.
Method: A 55.55 mM aqueous sodium phosphate solution (adjusted pH 7.4 with sodium hydroxide) was mixed with a 27.77 mM sodium bisulfite/27.77 mM sodium phosphate solution (adjusted pH 7.4 with sodium hydroxide) and water in various ratios to produce buffers containing 0,5.55, 16.66 and 27.77 mM sodium bisulfite. A 0.9 ml aliquot of each sodium bisulfite/phosphate buffer was added to separate 13×100 mm culture tubes and placed in a 50° C. Isotherm Tempblok® heater for 15 minutes. To each culture tube 0.1 ml of a 1 mg/ml aqueous solution of D-3-Piq-Pro-Arg-H.H2 SO4 (Example 80, Step F) was added and mixed well. […] These samples were allowed to react for 15 minutes at 90° C. and were then evaporated to dryness with nitrogen in a 55° C. N-Evap. The residue was dissolved in 1 ml of methanol and transferred to Varian Si BondElut SPE columns (1 ml) previously conditioned with 1 ml of water then 1 ml of methanol. The dissolved samples were pulled through solwly with a slight vacuum, and the sorbent layer was then washed with 2-1 ml volumes of methanol. The SPE columns were then dried at full vacuum (~25 in. Hg) and the compounds of interest were eluted with 300 μl of acetonitrile/100 mM sodium dodecyl sulfate (adjusted to pH 3 with phosphoric acid) (7:3, v/v) into 12×75 mm culture tubes. These eluates were analyzed by the HPLC system described below.
The mobile phase was acetonitrile/180 mM sodium dodecyl sulfate (adjusted to pH 3 with phosphoric acid) (85:15, v/v) pumped at 0.5 ml/min with a Shimadzu LC-10AD pump. The column was an Inertsil ODS(2) 150×3.0 mm maintained at 40° C. with a Jones Chromatography 7960 column heater. Twenty-five microliter injections were made with a Waters WISP 712 autosampler. Detection was accomplished with a Kratos 783 UV detector at 360 nm. The percentage of the DLD isomer was calculated using the peak areas of the DLL and DLD isomers in the chromatograms and the following equation: [formula]

[2] = Epimerization inhibition by sodium bisulfite (compound of Example 75); assay type: physicochemical; details: pH 7.4, 50° C.
Method: A 55.55 mM aqueous sodium phosphate solution (adjusted to pH 7.4 with sodium hydroxide) was mixed with an aqueous 27.77 mM sodium bisulfite/27.77 mM sodium phosphate solution (adjusted to pH 7.4 with sodium hydroxide) and water in various ratios to produce buffers containing 0, 5.55, 11.11, 16.66, 22.22 and 27.77 mM sodium bisulfite. A 0.9 ml aliquot of each sodium bisulfite/phosphate buffer was added to separate 13×100 mm culture tubes and placed in a 50° C. Tempblok® heater for 15 minutes. To each culture tube 0.1 ml of a 1 mg/ml aqueous solution of the compound of Example 75 was added and mixed well. […] These samples were allowed to react for 30 minutes at 60° C. and were then evaporated to dryness with nitrogen in a 55° C. N-Evap. The residue was dissolved in 1 ml of methanol and transferred to Varian Si BondElut SPE columns (1 ml) previously conditioned with 2 ml of water then 2 ml of methanol. The dissolved samples were pulled through slowly with a slight vaccum, and the sorbent layer was then washed with 2-1 ml volumes of methanol. The SPE columns were then dried at full vacuum (~25 in. Hg) then 500 μl of 500 mM potassium chloride was passed through the SPE columns. The compounds of interest were eluted with 300 μl of methanol/500 mM potassium chloride (1:1, v/v) into 12×75 mm culture tubes. These eluates were analyzed by the HPLC system described below.
The mobile phase was acetonitrile/methanol/500 mM ammonium acetate pH 7 (3:3:4, v/v) pumped at 1 ml/min with a Shimadzu LC-10AD pump. The column was a Zorbax SB-C8 150×4.6 mm maintained at 40° C. with a Jones Chromatography 7960 column heater. Fifty microliter injections were made with a Waters WISP 712 autosampler. Detection was accomplished with a Kratos 783 UV detector at 360 nm. The percentage of the DLD isomer was calculated using the peak areas of the DLL and DLD isomers in the chromatograms and the following equation: [formula]

For N=C(N)NCCCC(C=O)NC(=O)C1CCCN1C(=O)C1CC2CCCCC2CN1.O=S(=O)(O)O [80 (Step F), D-3-(cis)Piq-Pro-Arg-H.H2 SO4], the “Percentage of DLD Isomer” value ([1]; sodium bisulfite 0 mM, 0 hr) was 4.84%, the “Percentage of DLD Isomer” value ([1]; sodium bisulfite 0 mM, 0.5 hr) was 46.00% and the “Percentage of DLD Isomer” value ([1]; sodium bisulfite 0 mM, 1 hr) was 49.42%. For the same compound, the “Percentage of DLD Isomer” value ([1]; sodium bisulfite 0 mM, 2 hr) was 49.53%, the “Percentage of DLD Isomer” value ([1]; sodium bisulfite 0 mM, 3 hr) was 50.16% and the “Percentage of DLD Isomer” value ([1]; sodium bisulfite 0 mM, 4 hr) was 50.36%. The “Percentage of DLD Isomer” value ([1]; sodium bisulfite 0 mM, 6 hr) was 49.71%, the “Percentage of DLD Isomer” value ([1]; sodium bisulfite 0 mM, 8 hr) was 49.92% and the “Percentage of DLD Isomer” value ([1]; sodium bisulfite 5 mM, 0 hr) was 4.23%. The “Percentage of DLD Isomer” value ([1]; sodium bisulfite 5 mM, 0.5 hr) was 43.52%, the “Percentage of DLD Isomer” value ([1]; sodium bisulfite 5 mM, 1 hr) was 48.99% and the “Percentage of DLD Isomer” value ([1]; sodium bisulfite 5 mM, 2 hr) was 47.98%. For the same compound, the “Percentage of DLD Isomer” value ([1]; sodium bisulfite 5 mM, 3 hr) was 49.89%, the “Percentage of DLD Isomer” value ([1]; sodium bisulfite 5 mM, 4 hr) was 49.90% and the “Percentage of DLD Isomer” value ([1]; sodium bisulfite 5 mM, 6 hr) was 49.80%. The “Percentage of DLD Isomer” value ([1]; sodium bisulfite 5 mM, 8 hr) was 50.08%, the “Percentage of DLD Isomer” value ([1]; sodium bisulfite 15 mM, 0 hr) was 4.16% and the “Percentage of DLD Isomer” value ([1]; sodium bisulfite 15 mM, 0.5 hr) was 27.80%. The “Percentage of DLD Isomer” value ([1]; sodium bisulfite 15 mM, 1 hr) was 40.63%, the “Percentage of DLD Isomer” value ([1]; sodium bisulfite 15 mM, 2 hr) was 45.06% and the “Percentage of DLD Isomer” value ([1]; sodium bisulfite 15 mM, 3 hr) was 45.72%. The “Percentage of DLD Isomer” value ([1]; sodium bisulfite 15 mM, 4 hr) was 49.24%, the “Percentage of DLD Isomer” value ([1]; sodium bisulfite 15 mM, 6 hr) was 49.63% and the “Percentage of DLD Isomer” value ([1]; sodium bisulfite 15 mM, 8 hr) was 49.99%. The “Percentage of DLD Isomer” value ([1]; sodium bisulfite 25 mM, 0 hr) was 3.71%, the “Percentage of DLD Isomer” value ([1]; sodium bisulfite 25 mM, 0.5 hr) was 4.56% and the “Percentage of DLD Isomer” value ([1]; sodium bisulfite 25 mM, 1 hr) was 5.14%. For the same compound, the “Percentage of DLD Isomer” value ([1]; sodium bisulfite 25 mM, 2 hr) was 5.31%, the “Percentage of DLD Isomer” value ([1]; sodium bisulfite 25 mM, 3 hr) was 5.79% and the “Percentage of DLD Isomer” value ([1]; sodium bisulfite 25 mM, 4 hr) was 6.06%. For the same compound, the “Percentage of DLD Isomer” value ([1]; sodium bisulfite 25 mM, 6 hr) was 6.39% and the “Percentage of DLD Isomer” value ([1]; sodium bisulfite 25 mM, 8 hr) was 6.72%.

In the case of CN[C@H](CC1CCCCC1)C(=O)N1CCC[C@H]1C(=O)N[C@H](C=O)CCCNC(=N)N.Cl [Example 75, N-methyl-D-cyclohexylalanyl-L-Prolinyl-L-Arginine Aldehyde Hydrochloride] (H-[dNMeCha]-Pro-Arg-aldehyde), the “Percentage of DLD Isomer” value ([2]; sodium bisulfite 0 mM, 0 hr) was 7.33%, the “Percentage of DLD Isomer” value ([2]; sodium bisulfite 0 mM, 0.5 hr) was 31.91% and the “Percentage of DLD Isomer” value ([2]; sodium bisulfite 0 mM, 2 hr) was 48.95%. For the same compound, the “Percentage of DLD Isomer” value ([2]; sodium bisulfite 0 mM, 3 hr) was 50.21%, the “Percentage of DLD Isomer” value ([2]; sodium bisulfite 0 mM, 4 hr) was 50.27% and the “Percentage of DLD Isomer” value ([2]; sodium bisulfite 0 mM, 6 hr) was 50.03%. For the same compound, the “Percentage of DLD Isomer” value ([2]; sodium bisulfite 0 mM, 8 hr) was 50.15%, the “Percentage of DLD Isomer” value ([2]; sodium bisulfite 0 mM, […]) was 44.72% and the “Percentage of DLD Isomer” value ([2]; sodium bisulfite 5 mM, 0 hr) was 7.35%. For the same compound, the “Percentage of DLD Isomer” value ([2]; sodium bisulfite 5 mM, 0.5 hr) was 14.64%, the “Percentage of DLD Isomer” value ([2]; sodium bisulfite 5 mM, 2 hr) was 34.64% and the “Percentage of DLD Isomer” value ([2]; sodium bisulfite 5 mM, 3 hr) was 42.75%. For the same compound, the “Percentage of DLD Isomer” value ([2]; sodium bisulfite 5 mM, 4 hr) was 47.21%, the “Percentage of DLD Isomer” value ([2]; sodium bisulfite 5 mM, 6 hr) was 48.75% and the “Percentage of DLD Isomer” value ([2]; sodium bisulfite 5 mM, 8 hr) was 49.61%. The “Percentage of DLD Isomer” value ([2]; sodium bisulfite 5 mM, […]) was 24.74%, the “Percentage of DLD Isomer” value ([2]; sodium bisulfite 10 mM, 0 hr) was 7.54% and the “Percentage of DLD Isomer” value ([2]; sodium bisulfite 10 mM, 0.5 hr) was 10.79%. For the same compound, the “Percentage of DLD Isomer” value ([2]; sodium bisulfite 10 mM, 2 hr) was 25.55%, the “Percentage of DLD Isomer” value ([2]; sodium bisulfite 10 mM, 3 hr) was 35.08% and the “Percentage of DLD Isomer” value ([2]; sodium bisulfite 10 mM, 4 hr) was 41.99%. The “Percentage of DLD Isomer” value ([2]; sodium bisulfite 10 mM, 6 hr) was 50.73%, the “Percentage of DLD Isomer” value ([2]; sodium bisulfite 10 mM, 8 hr) was 51.60% and the “Percentage of DLD Isomer” value ([2]; sodium bisulfite 10 mM, […]) was 17.72%. The “Percentage of DLD Isomer” value ([2]; sodium bisulfite 15 mM, 0 hr) was 8.37%, the “Percentage of DLD Isomer” value ([2]; sodium bisulfite 15 mM, 0.5 hr) was 10.31% and the “Percentage of DLD Isomer” value ([2]; sodium bisulfite 15 mM, 2 hr) was 21.41%. The “Percentage of DLD Isomer” value ([2]; sodium bisulfite 15 mM, 3 hr) was 28.54%, the “Percentage of DLD Isomer” value ([2]; sodium bisulfite 15 mM, 4 hr) was 35.26% and the “Percentage of DLD Isomer” value ([2]; sodium bisulfite 15 mM, 6 hr) was 46.26%. For the same compound, the “Percentage of DLD Isomer” value ([2]; sodium bisulfite 15 mM, 8 hr) was 50.58%, the “Percentage of DLD Isomer” value ([2]; sodium bisulfite 15 mM, […]) was 15.19% and the “Percentage of DLD Isomer” value ([2]; sodium bisulfite 20 mM, 0 hr) was 7.65%. For the same compound, the “Percentage of DLD Isomer” value ([2]; sodium bisulfite 20 mM, 0.5 hr) was 9.90%, the “Percentage of DLD Isomer” value ([2]; sodium bisulfite 20 mM, 2 hr) was 17.28% and the “Percentage of DLD Isomer” value ([2]; sodium bisulfite 20 mM, 3 hr) was 23.70%. For the same compound, the “Percentage of DLD Isomer” value ([2]; sodium bisulfite 20 mM, 4 hr) was 29.34%, the “Percentage of DLD Isomer” value ([2]; sodium bisulfite 20 mM, 6 hr) was 43.32% and the “Percentage of DLD Isomer” value ([2]; sodium bisulfite 20 mM, 8 hr) was 48.73%. The “Percentage of DLD Isomer” value ([2]; sodium bisulfite 20 mM, […]) was 12.88%, the “Percentage of DLD Isomer” value ([2]; sodium bisulfite 25 mM, 0 hr) was 8.16% and the “Percentage of DLD Isomer” value ([2]; sodium bisulfite 25 mM, 0.5 hr) was 9.47%. The “Percentage of DLD Isomer” value ([2]; sodium bisulfite 25 mM, 2 hr) was 14.78%, the “Percentage of DLD Isomer” value ([2]; sodium bisulfite 25 mM, 3 hr) was 18.66% and the “Percentage of DLD Isomer” value ([2]; sodium bisulfite 25 mM, 4 hr) was 24.34%. The “Percentage of DLD Isomer” value ([2]; sodium bisulfite 25 mM, 6 hr) was 37.60%, the “Percentage of DLD Isomer” value ([2]; sodium bisulfite 25 mM, 8 hr) was 46.26% and the “Percentage of DLD Isomer” value ([2]; sodium bisulfite 25 mM, […]) was 11.42%.
